These results are taken from publication PMC11859905, “Flavonoids as Potential Modulators of Pancreatic Lipase Catalytic Activity” (Pharmaceutics, 2025).

Test [1] has as its target T1, human pancreatic lipase (Homo sapiens, UniProt P16233).
T1 construct: PL from the human pancreas (triacylglycerol acyl hydrolase, EC 3.1.1.3); from tissue; host or cells: human pancreas
T1 sequence (P16233 17-465): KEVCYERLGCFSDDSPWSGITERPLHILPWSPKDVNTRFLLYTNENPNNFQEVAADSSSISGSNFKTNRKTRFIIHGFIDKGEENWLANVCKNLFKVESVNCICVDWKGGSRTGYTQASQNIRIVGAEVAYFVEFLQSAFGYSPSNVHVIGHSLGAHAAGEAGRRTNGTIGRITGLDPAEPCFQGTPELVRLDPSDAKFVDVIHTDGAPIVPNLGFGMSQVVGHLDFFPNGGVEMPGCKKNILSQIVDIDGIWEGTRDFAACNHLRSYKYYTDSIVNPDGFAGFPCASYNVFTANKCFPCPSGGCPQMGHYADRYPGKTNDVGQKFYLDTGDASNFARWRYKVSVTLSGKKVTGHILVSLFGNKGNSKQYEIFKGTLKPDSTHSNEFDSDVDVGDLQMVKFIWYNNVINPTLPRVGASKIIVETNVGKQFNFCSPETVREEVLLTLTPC
Put plainly: In vitro assay using human pancreatic lipase (4-MUO hydrolysis, fluorometric).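 As to all read-outs here: Read-out is the initial rate of fluorescent 4-MU release as HPL cleaves the 4-MUO substrate, a rate that scales with the amount of enzyme.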 The settings on record: for IC50: human PL 2 U/mL, 4-MUO 0.05 mM, mean ± SEM. It counts as biochemical.

Test [2] addresses T2, porcine pancreatic lipase (Sus scrofa, UniProt P00591).
T2 sequence (P00591 1-450): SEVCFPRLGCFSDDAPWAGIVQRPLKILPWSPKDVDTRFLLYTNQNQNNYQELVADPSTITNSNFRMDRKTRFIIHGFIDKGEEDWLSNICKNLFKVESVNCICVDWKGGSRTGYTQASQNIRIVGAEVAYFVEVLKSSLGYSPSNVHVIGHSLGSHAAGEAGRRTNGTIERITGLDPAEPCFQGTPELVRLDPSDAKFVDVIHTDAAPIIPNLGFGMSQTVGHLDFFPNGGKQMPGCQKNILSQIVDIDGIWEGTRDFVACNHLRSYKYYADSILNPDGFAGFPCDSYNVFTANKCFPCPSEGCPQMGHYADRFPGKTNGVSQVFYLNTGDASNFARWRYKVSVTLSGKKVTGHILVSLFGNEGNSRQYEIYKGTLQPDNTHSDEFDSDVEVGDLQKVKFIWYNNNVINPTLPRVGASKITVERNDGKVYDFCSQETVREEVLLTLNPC
Put plainly: In vitro assay using porcine pancreatic lipase (4-MUO hydrolysis, fluorometric).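 Also: product 4-methylumbeliferone formation tracked fluorometrically, catalytic rate from RFU slope over the 10–30 min window, compounds checked beforehand for own fluorescence, at least three independent experiments.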

The target in test [3] is T2, porcine pancreatic lipase. The experiment in a line: Inhibition kinetics of porcine pancreatic lipase (nonlinear regression, Solver). The format is biochemical. Also noted: compare it to the effects of the porcine pancreas (type II, EC 3.1.1.3); from tissue; host or cells: porcine pancreas (type II preparation). The settings on record: for Inhibition Model / Ki / Vmax: porcine pancreatic lipase; for Ki / Vmax: ± SEM; for Vmax: in µmol/min.

For test [4], the target named is T1, human pancreatic lipase. Put plainly: Inhibition kinetics of human pancreatic lipase (nonlinear regression, Solver). It counts as biochemical.
The target in test [5] is T2, porcine pancreatic lipase. The arrangement: compare it to the effects of the porcine pancreas (type II, EC 3.1.1.3); from tissue; host or cells: porcine pancreas (type II preparation). The settings on record: not calculated in this paper; cited from earlier work.
[6] abbreviates: read-out: PL Inhibition (%) ± SEM, Human.
The mark [7] stands for this setting: competitive constant, read-out: Kic.
[8] abbreviates: read-out: PL Inhibition (%) ± SEM, Porcine.

Like-named read-outs stand apart in the source and are kept apart here.

Take `O=C(O[C@@H]1Cc2c(O)cc(O)cc2O[C@@H]1c1cc(O)c(O)c(O)c1)c1cc(O)c(O)c(O)c1` [Flavonoid 41, (–)-Epigallocatechin gallate]: on human pancreatic lipase [1] (setting [6]), the inhibition at 100 µM was less than 30%. The IC50 in test [2] is 32 ± 4 µM. In test [3], the “Inhibition Model” value was “Competitive” and the Vmax worked out at 680 ± 7. The Ki in test [3] (setting [7]) amounted to 21 ± 3 µM.
`O=c1c(O)c(-c2cc(O)c(O)c(O)c2)oc2cc(O)cc(O)c12` [Flavonoid 38, Myricetin]: the IC50 on human pancreatic lipase [1] came to 25 ± 2 µM; in test [2] it was 16 ± 1 µM. For the same molecule, the “Inhibition Model” value on human pancreatic lipase [4] (human pancreatic lipase) is “Noncompetitive”. For the same molecule, the Ki in test [3] (setting [7]) came out at 12 ± 0.8 µM; in test [3] (uncompetitive constant, read-out: Kiu), 58 ± 3 µM.
Regarding `CCCCCCCCCCc1c(-c2ccc(O)c(O)c2)oc2cc(O)cc(O)c2c1=O` [Flavonoid 30], the IC50 was 3.2 ± 0.1 µM on human pancreatic lipase [1] and 7.3 ± 0.6 µM in test [2]. In addition, the “Inhibition Model” value on human pancreatic lipase [4] (human pancreatic lipase) is “mixed-type”; in test [3], “Competitive”. Also, the Ki worked out at 1.3 ± 0.3 µM at human pancreatic lipase [4] (human pancreatic lipase, first Kic column of Table 4, ± SEM) and 1.78 ± 0.04 µM in test [3] (setting [7]). Also, the Vmax at human pancreatic lipase [4] (human pancreatic lipase, ± SEM) was 260 ± 10; in test [3], 507 ± 4. Besides, the “potency against HPL from Kic, times higher than 38 (myricetin)” value on human pancreatic lipase [4] (versus 38) is recorded as “approximately 60”. Further, in test [3] (versus 38, 27 and 41), the “binding affinity to PPL, times higher than the other compounds (from Kic)” value is “approximately 10”.
Regarding `O=c1cc(-c2cccc(O)c2)oc2ccccc12` [Flavonoid 2], the inhibition at 100 µM (on human pancreatic lipase [1] (setting [6]); in test [2] (setting [8])) was less than 30% each time.
For the molecule `CCCCc1c(-c2ccc(O)c(O)c2)oc2cc(O)cc(O)c2c1=O` [Flavonoid 28], the IC50 on human pancreatic lipase [1] was determined as 42 ± 2 µM; in test [2] it was 13 ± 1 µM.
With `O=c1c(O)c(-c2ccccc2)oc2cc(O)cc(O)c12` [Flavonoid 23, Galangin], the inhibition at 50 µM was less than 30% at human pancreatic lipase [1] (at 50 μM, read-out: PL Inhibition (%) ± SEM, Human) and 41 ± 1% in test [2] (setting [8]).
Consider `O=c1cc(-c2ccc(O)cc2)oc2cc(O)cc(O)c12` [Flavonoid 15, Apigenin], for which the IC50 came to 75 ± 2 µM on human pancreatic lipase [1] and 41 ± 1 µM in test [2].
On to `O=c1c(O)c(-c2ccc(O)c(O)c2)oc2cc(O)cc(O)c12` [Flavonoid 27, Quercetin], for which, at human pancreatic lipase [1] (read-out: PL Inhibition (%) ± SEM, Human, at 75 μM), the inhibition at 75 µM was less than 46%. In test [3], the “Inhibition Model” value is given as “Competitive” and the Vmax was 354 ± 3.
Consider `CCCCCCCCCCC[C@@H](C[C@@H]1OC(=O)[C@H]1CCCCCC)OC(=O)[C@H](CC(C)C)NC=O` [Orlistat], for which the “type of PL inhibition” value in test [5] is “irreversible”.

For orientation: inhibition means the change of the read-out against control, counted positive when it falls. One may read the IC50 as the concentration at which inhibition is half-maximal. Lower therefore signals greater potency in that assay.
